Measurements from the NIST ThermoML archive (doi:10.1016/j.jct.2016.10.031).

Experiment: molar heat capacity at constant pressure
Conditions: 101.33 kPa, Small (less than 1 g) adiabatic calorimetry

CC(C)(C)c1ccc(Oc2ccc([N+](=O)[O-])cc2)cc1 [1-(tert-butyl)-4-(4-nitrophenoxy)benzene]
molar heat capacity at constant pressure [J/K/mol]
Conditions | Crystal | Glass
88.13 K | 121.72 | –
88.7 K | – | 125.63
88.93 K | 122.72 | –
89.5 K | – | 126.55
89.73 K | 123.64 | –
90 K | 123.8 | –
90.3 K | – | 127.29
90.54 K | 124.63 | –
91.1 K | – | 128.38
91.34 K | 125.55 | –
91.91 K | – | 129.29
92.15 K | 126.55 | –
92.71 K | – | 130.12
92.95 K | 127.29 | –
93.52 K | – | 131.12
93.75 K | 128.13 | –
94.32 K | – | 132.03
94.56 K | 129.21 | –
95.13 K | – | 132.87
95.36 K | 130.12 | –
95.93 K | – | 133.7
96.17 K | 131.04 | –
96.73 K | – | 134.69
96.97 K | 132.03 | –
97.54 K | – | 135.44
97.77 K | 132.87 | –
98.34 K | – | 136.44
98.58 K | 133.78 | –
99.14 K | – | 137.35
99.38 K | 134.61 | –
99.95 K | – | 138.35
100 K | 135.53 | –
100.19 K | 135.53 | –
100.75 K | – | 139.43
100.99 K | 136.44 | –
101.55 K | – | 140.18
101.79 K | 137.27 | –
102.35 K | – | 141.01
102.59 K | 138.27 | –
103.16 K | – | 142.01
103.4 K | 139.18 | –
103.96 K | – | 142.76
104.2 K | 140.1 | –
104.76 K | – | 143.67
105 K | 141.18 | –
105.56 K | – | 144.67
105.8 K | 141.93 | –
106.36 K | – | 145.42
106.6 K | 142.84 | –
107.16 K | – | 146.17
107.4 K | 143.67 | –
107.96 K | – | 147.25
108.21 K | 144.51 | –
108.77 K | – | 148.25
109.01 K | 145.5 | –
109.57 K | – | 149
109.81 K | 146.25 | –
110 K | 146.42 | –
110.37 K | – | 149.83
110.61 K | 147.17 | –
111.17 K | – | 150.74
111.42 K | 148.08 | –
111.97 K | – | 151.66
112.22 K | 149 | –
112.78 K | – | 152.74
113.02 K | 149.74 | –
113.58 K | – | 153.57
113.82 K | 150.57 | –
114.38 K | – | 154.32
114.63 K | 151.57 | –
115.18 K | – | 155.23
115.43 K | 152.57 | –
115.99 K | – | 156.23
116.23 K | 153.24 | –
116.79 K | – | 156.89
117.04 K | 154.32 | –
117.59 K | – | 157.81
117.84 K | 155.15 | –
118.4 K | – | 158.72
118.64 K | 155.98 | –
119.2 K | – | 159.8
119.45 K | 156.81 | –
120 K | 157.31 | 160.64
120.25 K | 157.89 | –
120.81 K | – | 161.47
121.06 K | 158.56 | –
121.61 K | – | 162.22
121.86 K | 159.64 | –
122.41 K | – | 163.13
122.66 K | 160.3 | –
123.21 K | – | 164.21
123.47 K | 161.22 | –
124.02 K | – | 164.88
124.27 K | 162.13 | –
124.82 K | – | 165.96
125.07 K | 162.96 | –
125.62 K | – | 166.54
125.87 K | 163.79 | –
126.42 K | – | 167.37
126.68 K | 164.71 | –
127.23 K | – | 168.2
127.48 K | 165.54 | –
128.03 K | – | 169.2
128.28 K | 166.54 | –
128.83 K | – | 170.03
129.09 K | 167.45 | –
129.63 K | – | 170.95
129.89 K | 168.2 | –
130 K | 168.2 | –
130.43 K | – | 171.94
130.69 K | 169.03 | –
131.24 K | – | 172.53
131.49 K | 170.03 | –
132.04 K | – | 173.27
132.3 K | 170.86 | –
132.84 K | – | 174.35
133.1 K | 171.69 | –
133.64 K | – | 175.19
133.9 K | 172.77 | –
134.44 K | – | 176.02
134.71 K | 173.61 | –
135.25 K | – | 176.93
135.51 K | 174.44 | –
136.05 K | – | 177.85
136.31 K | 175.1 | –
136.85 K | – | 178.76
137.11 K | 176.02 | –
137.65 K | – | 179.76
137.92 K | 176.85 | –
138.45 K | – | 180.67
138.72 K | 177.93 | –
139.25 K | – | 181.5
139.52 K | 178.68 | –
140 K | 179.01 | –
140.06 K | – | 182.42
140.32 K | 179.43 | –
140.86 K | – | 183.25
141.12 K | 180.26 | –
141.66 K | – | 184
141.93 K | 181.34 | –
142.46 K | – | 184.83
142.72 K | 181.92 | –
143.25 K | – | 185.83
143.53 K | 182.83 | –
144.06 K | – | 186.66
144.33 K | 183.83 | –
144.86 K | – | 187.57
145.13 K | 184.75 | –
145.66 K | – | 188.41
145.93 K | 185.66 | –
146.46 K | – | 189.32
146.73 K | 186.49 | –
147.26 K | – | 190.15
